From US11617748B2, “Meclozine derivatives and diclazuril derivatives for use in the prevention and/or the treatment of disorders associated to the inflammation induced by P. acnes” (priority 2016, dated 2023)
pIC50: −log10 of the molar value.

System: IL-8 production
Test: P. acnes-induced IL-8 production in HaCaT keratinocytes (ELISA)
Type: cell-based, human
Conditions: for reduction of IL-8 production, 24 h pre-treatment / effect on IL-8 production (time course, FIG. 4A) / effect on IL-8 production at 12.5 μM, in words / reduction of IL-8 production, 1 and 6 h pre-treatment / decrease of IL-8 production, 48 h pre-treatment: HaCaT; for reduction of IL-8 production, 24 h pre-treatment: 6.25 μM; for reduction of IL-8 production, 24 h pre-treatment / reduction of IL-8 production, 1 and 6 h pre-treatment / decrease of IL-8 production, 48 h pre-treatment: P. acnes 18 h; for effect on IL-8 production (time course, FIG. 4A): 10 μM, P. acnes 15-180 min; for reduction of IL-8 production, 24 h pre-treatment / effect on IL-8 production (time course, FIG. 4A): 24 h pre-treatment; for effect on IL-8 production at 12.5 μM, in words: 24 h pre-treatment (FIG. 8B); for reduction of IL-8 production, 1 and 6 h pre-treatment: 0.39 to 12.5 μM; for pIC50: Homo sapiens, HaCaT cells pre-treated 24 h, then stimulated with P. acnes, read-out: IC50 of inhibition of IL-8 production
Protocol: Bacterial strain and conditions of growth. P. acnes strain 6919 was obtained from the American Type Culture Collection (Manassas, Va.) and P. acnes strains RON and PIE were isolated from patient with joint infection. All strains were grown under anaerobic conditions in reinforced clostridial liquid and solid medium (RCM) (Difco Laboratories, Detroit, Mich.). P. acnes was transferred from the bacterial stock onto RCM agar plate and incubated for 5 days under anaerobic condition by using a GasPak™ EZ Anaerobic Container System (Becton Dickinson & Co, Sparks Md., USA). A single colony was transferred into 100 ml RCM and grown as described above. Bacterial suspension was then store frozen at −80° C. in presence of 10% glycerol final. This stock was called «start stock» and used for all the experiments. For routine culture, 100 ml of RCM was used and bacteria were harvested after 5 days at 37° C. by centrifugation at 7,000×g for 10 min at 4° C. Pellets were pooled and washed in about 30 ml of cold sterile PBS [1.5 mM KH2PO4, 2.7 mM Na2HPO4.7H2O, 0.15 M NaCl (pH 7.4)] and centrifuged again as described above. Finally, the bacterial pellet was suspended in sterile PBS (1:10 from volume culture).
Cell culture, pretreatment and stimulation. The immortalized human keratinocyte cell line HaCaT, fibroblast MRC5 were grown in Dulbecco's modified Eagle's medium-Glutamax-I (DMEM) with 1 mM sodium pyruvate. The immortalized human monocytic cell line ThP1 was grown in Roswell Park Memorial Institute 1640 Medium-Glutamax-I (RPMI). DMEM and RPMI were supplemented with 0.1% and 10% heat-inactivated fetal calf serum (Invitrogen), and an antibiotic/antimycotic solution (10 U/ml Pencillin, 10 μg/ml Streptomycin, 0.25 μg/ml Amphoterin) at 37° C. in humidified atmosphere containing 5% CO2 as described (Life Technologie). Primary human keratinocytes (NHDK) and fibroblast (HDF) were grown in the KGM-Gold and in FGM-2 Bullet Kit, respectively, as described by the manufacturer (Lonza). The immortalized cell lines were routinely tested to assess the absence of Mycoplasma infection. Cells, cultivated in 6- or 96-well polystyrene plates, were pretreated with appropriate molecule solution for 1 to 48 h at 37° C. in the dark at the appropriate concentration. Then, for stimulation, cells were incubated for 15 min to 24 h with the P. acnes suspension adjusted at the appropriate concentration at 37° C. in 5% CO2. For experiences using an in vitro model of psoriasis, the primary human keratinocytes (NHDK) were grown in culture medium for 24 hours. The medium was removed and replaced with culture medium containing meclozine, diclazuril and JAK inhibitor (used as positive control) at the concentrations of 0.39, 0.78, 1.56, 3.12, 6.25 and 12.5 μM and the pro-inflammatory mixture M5 (combination of IL-17A, OSM, TNF-α, IL-22, IL-1α at 10 ng/ml) was added to the cells followed by an incubation for 48 or 72 hours.
ELISA. Human IL-1β, IL-8, hBD-2 and TNF-α protein concentration were measured in the supernatants of stimulated cells using various ELISA Sets (all from Ready-Set-Go from eBioscience, except hBD-2 measurements: Human DEFB4A/BD-2 ELISA Kit from LSBio) according to the manufacturer's instructions. We used serial dilutions of recombinant human IL-1β, IL-8, hBD-2 and TNF-α for standard curve. The optical density was determined at 450 nm at a wavelength correction of 540 nm.
Both molecules, diclazuril and meclozine, were purchased separately from Sigma and tested independently on immortalized keratinocytes HaCaT cell for their capacity to inhibit the IL-8 production in a dose-dependent manner. HaCaT cells were pre-treated with diclazuril and meclozine, at the concentrations ranging from 0.39 to 50 μM, for 24 h and then stimulated with P. acnes suspension as described in Materials and Methods. The production of IL-8 was measured on culture supernatant by ELISA and the viability of cells was estimated by MTT assay (FIG. 1).

| SMILES | reduction of IL-8 production, 24 h pre-treatment | effect on IL-8 production (time course, FIG. 4A) | effect on IL-8 production at 12.5 μM, in words | reduction of IL-8 production, 1 and 6 h pre-treatment | decrease of IL-8 production, 48 h pre-treatment | pIC50 |
| --- | --- | --- | --- | --- | --- | --- |
| Cc1cccc(CN2CCN(C(c3ccccc3)c3ccc(Cl)cc3)CC2)c1 (stereo not drawn) [meclozine, Meclozine] | 63% | inhibit | strong effect | did not reduce significantly | 78% | ~5.52 |
| N#CC(c1ccc(Cl)cc1)c1c(Cl)cc(-n2ncc(=O)[nH]c2=O)cc1Cl (stereo not drawn) [diclazuril, Diclazuril] | 36% | inhibit | strong effect | did not reduce significantly | 65% | ~5.22 |
